According to ChEMBL document CHEMBL4364318, “Targeting multiple myeloma with natural polyphenols” (Eur J Med Chem, 2019):

How the values were obtained:
U-266 = assay: Induction of nitric oxide production in human U266 cells; assay type: functional, cell-based
RPMI-8226 = assay: Induction of apoptosis in human RPMI8226 cells at 10 to 20 uM by TUNEL assay relative to control; assay type: functional

## O=C(O[C@@H]1Cc2c(O)cc(O)cc2O[C@@H]1c1cc(O)c(O)c(O)c1)c1cc(O)c(O)c(O)c1 [EPIGALOCATECHIN GALLATE]
U-266
  IC50: 23.2 µM
RPMI-8226
  Activity: >100%
